In patent US10829490B2, “Substituted dihydropyrazino[1 ′,2′:1,5]pyrrolo[2,3-d]pyrimidine-based antiproliferative agents” (G1 Therapeutics, Inc., priority 2016, dated 2020):
pIC50: −log10 of the molar value.

How the values were obtained:
[1] = biological target: CDK4/CycD (Homo sapiens (Human), UniProt P11802); assay: CDK4/CycD kinase inhibition (Biological Table 1); assay type: biochemical
[2] = biological target: CDK6/CycD3 (Homo sapiens (Human), UniProt Q00534); assay: CDK6/CycD3 kinase inhibition (Biological Table 1); assay type: biochemical
[3] = biological target: CDK2/CycE (Homo sapiens (Human), UniProt P24941); assay: CDK2/CycE kinase inhibition (Biological Table 1); assay type: biochemical
[4] = biological target: CDK2/CycA (Homo sapiens (Human), UniProt P24941); assay: CDK2/CycA kinase inhibition (Biological Table 1); assay type: biochemical
[5] = biological target: CDK5/p35 (Homo sapiens (Human), UniProt Q00535); assay: CDK5/p35 kinase inhibition (Biological Table 1); assay type: biochemical
[6] = biological target: CDK5/p25 (Homo sapiens (Human), UniProt Q00535); assay: CDK5/p25 kinase inhibition (Biological Table 2); assay type: biochemical
[7] = biological target: CDK7/CycH/MAT1 (Homo sapiens (Human), UniProt P50613); assay: CDK7/CycH/MAT1 kinase inhibition (Biological Table 2); assay type: biochemical
[8] = biological target: CDK9/CycT (Homo sapiens (Human), UniProt P50750); assay: CDK9/CycT kinase inhibition (Biological Table 2); assay type: biochemical
[9] = biological target: CDK4/CyclinD1 (Homo sapiens (Human), UniProt P11802); assay: CDK4/cyclinD1 kinase assay, microfluidic kinase detection (Caliper, Nanosyn); assay type: biochemical; conditions: 12-point dose-response, ATP at Km (200 μM), enzyme 1 nM, incubation 10 hr; read-out: CDK4/Cyclin D1
Protocol: (§1) Selected compounds disclosed herein were tested in CDK4/cyclinD1, CDK2/CycA and CDK2/cyclinE kinase assays by Nanosyn (Santa Clara, Calif.) to determine their inhibitory effect on these CDKs. The assays were performed using microfluidic kinase detection technology (Caliper Assay Platform). The compounds were tested in 12-point dose-response format in singlicate at Km for ATP. Phosphoacceptor substrate peptide concentration used was 1 μM for all assays and Staurosporine was used as the reference compound for all assays. Specifics of each assay are as described below:
CDK4/CyclinD1: Enzyme concentration: 1 nM; ATP concentration: 200 μM; Incubation time: 10 hr.

[10] = biological target: CDK6/Cyclin D3 (Homo sapiens (Human), UniProt Q00534); assay: CDK6/Cyclin D3 kinase assay (Biological Table 3); assay type: biochemical
Protocol: [Worded in the source for another target; this target is reported under the same test.] as §1, with “assays.” for “assays. Specifics of each assay are as described below:”

[11] = biological target: CDK2/CyclinE (Homo sapiens (Human), UniProt P24941); assay: CDK2/cyclinE kinase assay, microfluidic kinase detection (Caliper, Nanosyn); assay type: biochemical; conditions: 12-point dose-response, ATP at Km (100 μM), enzyme 0.28 nM, incubation 1 hr; read-out: CDK2/Cyclin E
Protocol: as §1
CDK2/CyclinE: Enzyme concentration: 0.28 nM; ATP concentration: 100 μM; Incubation time: 1 hr.

[12] = biological target: CDK2/CyclinA (Homo sapiens (Human), UniProt P24941); assay: CDK2/CycA kinase assay, microfluidic kinase detection (Caliper, Nanosyn); assay type: biochemical; conditions: 12-point dose-response, ATP at Km (50 μM), enzyme 0.2 nM, incubation 3 hr; read-out: CDK2/Cyclin A
Protocol: as §1
CDK2/CyclinA: Enzyme concentration: 0.2 nM; ATP concentration: 50 μM; Incubation time: 3 hr.

[13] = biological target: CDK9/Cyclin T (Homo sapiens (Human), UniProt P50750); assay: CDK9/Cyclin T kinase assay (Biological Table 3); assay type: biochemical
[14] = system: Hs68 cells; assay: Cell population by DNA content (<2N, G0-G1, S, G2-M) as measure of apoptotic cells; assay type: cell-based; conditions: at every dose administered (FIG. 4)
Excerpt: FIG. 4 is a bar graph showing the population of cells with a DNA content less than 2N, cells in the G0-G1 phase, cells in the S phase, and cells in the G2-M phase as a way to measure the relative amount of apoptotic cells following administration of control and Compound 28. The population of apoptotic cells after exposure to Compound 28 was greater than 70% at every dose administered. The assay was done in a population of Hs68 cells. * is <2000 events. The Compound number and dose, measured in μM and nM, are shown on the x-axis and the cell population, measured in percent, is shown on the y-axis.

Sequence of CDK4/CycD (P11802 whole entry): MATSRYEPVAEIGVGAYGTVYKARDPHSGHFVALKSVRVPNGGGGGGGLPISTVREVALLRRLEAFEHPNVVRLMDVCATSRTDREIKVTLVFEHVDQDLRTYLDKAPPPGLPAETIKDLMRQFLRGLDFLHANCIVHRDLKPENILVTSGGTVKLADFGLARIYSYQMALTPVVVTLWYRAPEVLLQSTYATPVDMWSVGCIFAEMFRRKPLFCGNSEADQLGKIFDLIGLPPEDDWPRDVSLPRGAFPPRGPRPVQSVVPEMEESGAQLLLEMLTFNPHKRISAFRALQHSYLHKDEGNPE
Sequence of CDK4/CycD (P24385 whole entry partner): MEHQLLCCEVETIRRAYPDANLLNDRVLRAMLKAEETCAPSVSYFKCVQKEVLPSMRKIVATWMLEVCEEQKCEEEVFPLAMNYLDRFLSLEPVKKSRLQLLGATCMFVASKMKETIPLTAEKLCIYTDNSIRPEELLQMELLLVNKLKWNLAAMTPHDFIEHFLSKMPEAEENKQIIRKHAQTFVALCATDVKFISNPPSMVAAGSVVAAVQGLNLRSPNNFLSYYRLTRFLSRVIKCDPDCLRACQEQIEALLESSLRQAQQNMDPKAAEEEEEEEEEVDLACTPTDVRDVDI
Sequence of CDK7/CycH/MAT1 (P50613 whole entry): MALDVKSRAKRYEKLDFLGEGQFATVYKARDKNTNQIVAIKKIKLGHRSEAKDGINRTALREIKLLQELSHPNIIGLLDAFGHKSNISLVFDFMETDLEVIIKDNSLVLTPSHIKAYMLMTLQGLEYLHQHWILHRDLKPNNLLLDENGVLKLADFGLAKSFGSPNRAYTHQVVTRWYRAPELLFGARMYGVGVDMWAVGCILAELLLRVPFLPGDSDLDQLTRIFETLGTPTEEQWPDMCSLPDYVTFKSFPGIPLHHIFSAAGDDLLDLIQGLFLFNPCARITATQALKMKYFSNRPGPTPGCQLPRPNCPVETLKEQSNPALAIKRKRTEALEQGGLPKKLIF
Sequence of CDK7/CycH/MAT1 (P51946 whole entry partner): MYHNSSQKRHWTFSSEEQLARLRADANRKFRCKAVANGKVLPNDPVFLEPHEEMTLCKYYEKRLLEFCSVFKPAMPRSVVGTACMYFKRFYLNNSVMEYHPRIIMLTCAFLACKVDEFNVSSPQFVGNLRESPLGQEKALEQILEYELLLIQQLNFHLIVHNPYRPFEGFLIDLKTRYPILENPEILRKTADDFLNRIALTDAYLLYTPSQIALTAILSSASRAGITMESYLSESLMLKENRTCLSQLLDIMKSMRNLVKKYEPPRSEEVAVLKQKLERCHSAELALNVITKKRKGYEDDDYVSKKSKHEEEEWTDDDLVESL
Sequence of CDK7/CycH/MAT1 (P51948 whole entry partner): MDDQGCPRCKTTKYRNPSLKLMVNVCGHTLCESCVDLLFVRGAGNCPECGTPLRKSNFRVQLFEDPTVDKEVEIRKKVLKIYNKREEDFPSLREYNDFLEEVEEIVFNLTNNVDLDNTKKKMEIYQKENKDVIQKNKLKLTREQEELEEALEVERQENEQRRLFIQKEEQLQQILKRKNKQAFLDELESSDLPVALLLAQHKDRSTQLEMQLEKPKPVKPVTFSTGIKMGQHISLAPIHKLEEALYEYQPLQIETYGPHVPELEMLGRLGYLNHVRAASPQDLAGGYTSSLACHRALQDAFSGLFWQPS
Sequence of CDK5/p25 (Q00535 whole entry): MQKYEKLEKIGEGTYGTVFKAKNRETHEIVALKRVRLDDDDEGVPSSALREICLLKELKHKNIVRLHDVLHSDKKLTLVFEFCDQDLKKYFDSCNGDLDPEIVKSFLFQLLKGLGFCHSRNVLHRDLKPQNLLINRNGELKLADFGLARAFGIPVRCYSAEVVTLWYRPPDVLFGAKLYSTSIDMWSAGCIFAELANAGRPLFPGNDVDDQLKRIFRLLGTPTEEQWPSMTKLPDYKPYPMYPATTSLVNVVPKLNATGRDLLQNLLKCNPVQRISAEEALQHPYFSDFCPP
Sequence of CDK5/p35 (Q00535 whole entry): as above
Sequence of CDK5/p35 (Q15078 whole entry partner): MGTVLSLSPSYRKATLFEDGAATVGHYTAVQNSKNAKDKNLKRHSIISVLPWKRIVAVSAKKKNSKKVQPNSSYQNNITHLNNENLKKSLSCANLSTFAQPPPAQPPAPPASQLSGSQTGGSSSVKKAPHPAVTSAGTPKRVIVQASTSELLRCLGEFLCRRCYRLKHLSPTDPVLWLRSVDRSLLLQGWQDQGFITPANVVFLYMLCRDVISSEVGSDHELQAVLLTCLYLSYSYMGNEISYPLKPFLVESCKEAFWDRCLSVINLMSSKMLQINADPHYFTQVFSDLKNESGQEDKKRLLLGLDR
Sequence of CDK6/CycD3 (Q00534 whole entry): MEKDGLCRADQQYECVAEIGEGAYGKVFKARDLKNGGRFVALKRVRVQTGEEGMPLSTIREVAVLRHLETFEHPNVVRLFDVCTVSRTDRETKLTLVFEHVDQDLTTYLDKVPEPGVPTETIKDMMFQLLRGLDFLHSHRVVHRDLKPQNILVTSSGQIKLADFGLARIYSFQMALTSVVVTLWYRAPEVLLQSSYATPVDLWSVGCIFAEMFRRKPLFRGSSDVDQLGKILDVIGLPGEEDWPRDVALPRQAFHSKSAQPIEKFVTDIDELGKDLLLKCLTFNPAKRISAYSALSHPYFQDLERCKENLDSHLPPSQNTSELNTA
Sequence of CDK6/CycD3 (P30281 whole entry partner): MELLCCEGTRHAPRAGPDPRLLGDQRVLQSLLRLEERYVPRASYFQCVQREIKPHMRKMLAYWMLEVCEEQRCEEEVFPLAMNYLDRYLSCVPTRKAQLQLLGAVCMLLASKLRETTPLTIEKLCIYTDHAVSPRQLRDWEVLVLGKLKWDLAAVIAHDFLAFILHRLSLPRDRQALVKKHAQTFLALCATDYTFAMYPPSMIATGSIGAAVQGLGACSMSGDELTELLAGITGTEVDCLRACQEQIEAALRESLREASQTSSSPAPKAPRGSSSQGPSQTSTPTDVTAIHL
Sequence of CDK9/CycT (P50750 whole entry): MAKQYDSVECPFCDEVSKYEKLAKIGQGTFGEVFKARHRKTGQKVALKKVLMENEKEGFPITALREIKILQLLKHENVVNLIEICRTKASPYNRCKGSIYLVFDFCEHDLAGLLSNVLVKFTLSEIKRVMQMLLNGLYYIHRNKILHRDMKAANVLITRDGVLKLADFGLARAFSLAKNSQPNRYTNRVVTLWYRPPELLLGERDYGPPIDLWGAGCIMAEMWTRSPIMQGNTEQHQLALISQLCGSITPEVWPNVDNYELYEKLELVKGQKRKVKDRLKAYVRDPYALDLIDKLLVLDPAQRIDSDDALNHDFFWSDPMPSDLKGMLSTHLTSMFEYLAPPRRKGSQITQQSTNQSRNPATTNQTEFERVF
Sequence of CDK9/CycT (O60563 whole entry partner): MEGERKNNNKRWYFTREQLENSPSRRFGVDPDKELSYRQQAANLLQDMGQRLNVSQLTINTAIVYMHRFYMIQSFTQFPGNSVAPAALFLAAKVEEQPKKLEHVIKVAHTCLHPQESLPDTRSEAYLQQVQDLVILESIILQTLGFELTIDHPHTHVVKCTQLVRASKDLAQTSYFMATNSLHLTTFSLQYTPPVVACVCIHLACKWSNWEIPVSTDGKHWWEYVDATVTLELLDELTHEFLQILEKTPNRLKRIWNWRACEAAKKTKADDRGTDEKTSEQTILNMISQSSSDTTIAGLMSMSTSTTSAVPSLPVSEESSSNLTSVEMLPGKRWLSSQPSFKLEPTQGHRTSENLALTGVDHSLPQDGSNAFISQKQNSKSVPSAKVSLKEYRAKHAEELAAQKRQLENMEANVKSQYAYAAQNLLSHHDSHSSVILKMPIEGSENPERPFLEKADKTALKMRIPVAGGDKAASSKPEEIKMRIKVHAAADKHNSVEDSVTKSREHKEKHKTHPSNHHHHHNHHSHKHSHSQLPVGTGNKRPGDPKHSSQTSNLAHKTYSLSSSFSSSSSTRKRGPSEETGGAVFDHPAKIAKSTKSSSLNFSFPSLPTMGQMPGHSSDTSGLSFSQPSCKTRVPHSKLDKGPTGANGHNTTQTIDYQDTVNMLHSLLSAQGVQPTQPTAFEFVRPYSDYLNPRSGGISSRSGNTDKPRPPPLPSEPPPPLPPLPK
Sequence of CDK4/CyclinD1 (P11802 whole entry): as the sequence (P11802 whole entry) above
Sequence of CDK4/CyclinD1 (P24385 whole entry partner): as the sequence (P24385 whole entry partner) above
Sequence of CDK6/Cyclin D3 (Q00534 whole entry): as the sequence (Q00534 whole entry) above
Sequence of CDK6/Cyclin D3 (P30281 whole entry partner): as the sequence (P30281 whole entry partner) above
Sequence of CDK9/Cyclin T (P50750 whole entry): as the sequence (P50750 whole entry) above
Sequence of CDK9/Cyclin T (O60563 whole entry partner): as the sequence (O60563 whole entry partner) above

| SMILES | pIC50 [1] | pIC50 [2] | pIC50 [3] | pIC50 [4] | pIC50 [5] | pIC50 [6] | pIC50 [7] | pIC50 [8] | pIC50 [9] | pIC50 [10] | pIC50 [11] | pIC50 [12] | pIC50 [13] | population of apoptotic cells [14] |
| --- | --- | --- | --- | --- | --- | --- | --- | --- | --- | --- | --- | --- | --- | --- |
| CN1CCN(c2ccc(Nc3ncc4c(n3)N3CCCCC3CC4=O)nc2)CC1 (stereo not drawn) [Compound 7, 2-((5-(4-methylpiperazin-1-yl)pyridin-2-yl)amino)-6,6a,7,8,9,10-hexahydro-5H-pyrimido[5,4-c]quinolizin-5-one] | 5.33 | 5.74 | < 4.00 | < 4.00 | < 4.00 | < 4.00 | < 4.00 | < 4.00 | – | – | – | – | – | – |
| CCOC(=O)C1C(=O)c2cnc(Nc3ccc(N4CCN(C)CC4)cn3)nc2N2CCCCC12 (stereo not drawn) [Compound 8, ethyl 2-((5-(4-methylpiperazin-1-yl)pyridin-2-yl)amino)-5-oxo-6,6a,7,8,9,10-hexahydro-5H-pyrimido[5,4-c]quinolizine-6-carboxylate] | 5.39 | 5.46 | < 4.00 | < 4.00 | < 4.00 | < 4.00 | < 4.00 | < 4.00 | – | – | – | – | – | – |
| CN1CCN(c2ccc(Nc3ncc4c(n3)N3C(=NCCC35CCCCC5)C=C4)nc2)CC1 [Compound 9, N-(5-(4-methylpiperazin-1-yl)pyridin-2-yl)-8′,9′-dihydrospiro[cyclohexane-1,10′-pyrido[1,6-a:2,3-d′]dipyrimidin]-2′-amine] | 5.59 | 5.74 | < 4.00 | < 4.00 | < 4.00 | < 4.00 | < 4.00 | < 4.00 | – | – | – | – | – | – |
| CN1CCN(c2cnc(Nc3ncc4cc5n(c4n3)C3(CCCCC3)CNC5=O)nc2)CC1 [Compound 28, 2′-((5-(4-Methylpiperazin-1-yl)pyrimidin-2-yl)amino)-7′,8′-dihydro-6′H-spiro[cyclohexane-1,9′-pyrazino[1′,2′:1,5]pyrrolo [2,3-d]pyrimidin]-6′-one] | – | – | – | – | – | – | – | – | 7.70 | 7.22 | < 4.00 | 4.87 | 6.00 | greater than 70% |
